From the supplement of paper PMC5908809

What was measured:
NKL (IL-2 2.5 ng/mL) [1] = assay: percent inhibition of viability; higher = more inhibition; settings: 72 h
IMC-1 (IL-2 20 ng/mL) [2] = assay: as above; settings: 72 h
[3] = system: normal primary NK cells, pool 1 (3 donors) (IL-2 2.5 ng/mL); assay: as above; settings: 72 h
[4] = system: normal primary NK cells, pool 3 (3 donors) (IL-2 2.5 ng/mL); assay: as above; settings: 72 h
[5] = system: normal primary NK cells, pool 2 (3 donors) (IL-2 2.5 ng/mL); assay: as above; settings: 72 h
KAI3 (IL-2 2.5 ng/mL) [6] = assay: as above; settings: 72 h
NK-YS (IL-2 2.5 ng/mL) [7] = assay: as above; settings: 72 h
[8] = system: normal primary NK cells, pool 1 (3 donors), resting (IL-2 0 ng/mL); assay: as above; settings: 72 h
KHYG-1 (IL-2 2.5 ng/mL) [9] = assay: as above; settings: 72 h
NK-92 (IL-2 2.5 ng/mL) [10] = assay: as above; settings: 72 h
YT (IL-2 2.5 ng/mL) [11] = assay: as above; settings: 72 h
SNK-6 (IL-2 2.5 ng/mL) [12] = assay: as above; settings: 72 h
DERL-7 (IL-2 2.5 ng/mL) [13] = assay: as above; settings: 72 h
[14] = system: normal NK cells expanded with K562-aAPC; assay: as above; settings: 72 h, IL-2 2.5 ng/mL
Protocol: (§1)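 Drug sensitivity and resistance testing on K562-aAPC-expanded normal NK cells: 5 concentrations (10-fold steps over a 10,000-fold range), 72 h at 37 °C, viability by CellTiter-Glo normalised to DMSO and benzethonium chloride controls; DSS from the fitted curve.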

[15] = system: normal NK cells expanded with K562-aAPC; assay: drug sensitivity score (DSS) (DSS units); higher = more sensitive; extreme values may be limits of the assay; settings: 72 h; IL-2 2.5 ng/mL
Protocol: as §1

NKL (IL-2 2.5 ng/mL) [16] = assay: as above; settings: 72 h
IMC-1 (IL-2 20 ng/mL) [17] = assay: as above; settings: 72 h
[18] = system: normal primary NK cells, pool 1 (3 donors) (IL-2 2.5 ng/mL); assay: as above; settings: 72 h
[19] = system: normal primary NK cells, pool 3 (3 donors) (IL-2 2.5 ng/mL); assay: as above; settings: 72 h
[20] = system: normal primary NK cells, pool 2 (3 donors) (IL-2 2.5 ng/mL); assay: as above; settings: 72 h
KAI3 (IL-2 2.5 ng/mL) [21] = assay: as above; settings: 72 h
NK-YS (IL-2 2.5 ng/mL) [22] = assay: as above; settings: 72 h
[23] = system: normal primary NK cells, pool 1 (3 donors), resting (IL-2 0 ng/mL); assay: as above; settings: 72 h
KHYG-1 (IL-2 2.5 ng/mL) [24] = assay: as above; settings: 72 h
NK-92 (IL-2 2.5 ng/mL) [25] = assay: as above; settings: 72 h
YT (IL-2 2.5 ng/mL) [26] = assay: as above; settings: 72 h
SNK-6 (IL-2 2.5 ng/mL) [27] = assay: as above; settings: 72 h
DERL-7 (IL-2 2.5 ng/mL) [28] = assay: as above; settings: 72 h

COc1c(C)cnc(Cn2cnc3c(Cl)nc(N)nc32)c1C [BIIB021] (max concentration tested 10000 nM)
percent inhibition of viability [%]
Settings | 1 nM | 10 nM | 100 nM | 1000 nM | 10000 nM
DERL-7 (IL-2 2.5 ng/mL) [13] | 2.38 | 6.56 | 62.9 | 99.9 | 101
IMC-1 (IL-2 20 ng/mL) [2] | 1.18 | -3.95 | 26.6 | 99.6 | 101
KAI3 (IL-2 2.5 ng/mL) [6] | -2.5 | 4.1 | 75.8 | 98.8 | 102
KHYG-1 (IL-2 2.5 ng/mL) [9] | -2.8 | -2.89 | 77.1 | 99.3 | 104
NK-92 (IL-2 2.5 ng/mL) [10] | -8.24 | -13.2 | 51.8 | 95.9 | 101
NK-YS (IL-2 2.5 ng/mL) [7] | 0.34 | 0.63 | 61.5 | 97.2 | 102
NKL (IL-2 2.5 ng/mL) [1] | -6.72 | -10.3 | 45.6 | 85.8 | 86.2
SNK-6 (IL-2 2.5 ng/mL) [12] | 19 | -3.8 | 92.6 | 91 | 90.3
YT (IL-2 2.5 ng/mL) [11] | -3.19 | -0.41 | 48.3 | 90.5 | 94.5
[3] | -3.67 | 7.97 | 27.8 | 79 | 88
[4] | -13.8 | -15 | 16.2 | 78.9 | 87.8
[5] | -9.44 | -10.5 | 39.7 | 81.5 | 83.5
[8] | 15.4 | 12.6 | 10.4 | 36.1 | 51
[14] | -1.27 | -2.67 | 62.1 | 98.6 | 100

Settings | drug sensitivity score
DERL-7 (IL-2 2.5 ng/mL) [28] | 25.7
IMC-1 (IL-2 20 ng/mL) [17] | 22
KAI3 (IL-2 2.5 ng/mL) [21] | 27.3
KHYG-1 (IL-2 2.5 ng/mL) [24] | 26.8
NK-92 (IL-2 2.5 ng/mL) [25] | 24.4
NK-YS (IL-2 2.5 ng/mL) [22] | 25.3
NKL (IL-2 2.5 ng/mL) [16] | 21.3
SNK-6 (IL-2 2.5 ng/mL) [27] | 28
YT (IL-2 2.5 ng/mL) [26] | 22.8
[15] | 25.3
[18] | 17.8
[19] | 16.6
[20] | 20.3
[23] | 8.4
